From patent publication US11981658B2, “Substituted aminopyridine compounds as EGFR inhibitors” (YUHAN CORPORATION, priority 2021, dated 2024)
Read-outs that look alike come from different tables or passages of the source.

What was measured:
EGFR Del19/T790M/C797S = EGFR Del19/T790M/C797S (Homo sapiens, UniProt P00533, C797S/DEL746-750/T790M); experiment: Biochemical EGFR kinase inhibition assay (Lance Ultra TR-FRET), triple mutant del19/T790M/C797S
Outline: (§1)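 Kinase activity is measured by TR-FRET phosphopeptide detection. Compounds span 0.003 μM to 10 μM; the 1 h reaction at room temperature is quenched with EDTA, then labelled antibody (2 nM) is incubated 60 min before reading.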

EGFR Del19/C797S = EGFR Del19/C797S (Homo sapiens, UniProt P00533, C797S/DEL746-750); experiment: Biochemical EGFR kinase inhibition assay (Lance Ultra TR-FRET), double mutant del19/C797S
Chain of EGFR Del19/C797S (P00533 with tags, fused parts or gaps DEL746-750/C797S): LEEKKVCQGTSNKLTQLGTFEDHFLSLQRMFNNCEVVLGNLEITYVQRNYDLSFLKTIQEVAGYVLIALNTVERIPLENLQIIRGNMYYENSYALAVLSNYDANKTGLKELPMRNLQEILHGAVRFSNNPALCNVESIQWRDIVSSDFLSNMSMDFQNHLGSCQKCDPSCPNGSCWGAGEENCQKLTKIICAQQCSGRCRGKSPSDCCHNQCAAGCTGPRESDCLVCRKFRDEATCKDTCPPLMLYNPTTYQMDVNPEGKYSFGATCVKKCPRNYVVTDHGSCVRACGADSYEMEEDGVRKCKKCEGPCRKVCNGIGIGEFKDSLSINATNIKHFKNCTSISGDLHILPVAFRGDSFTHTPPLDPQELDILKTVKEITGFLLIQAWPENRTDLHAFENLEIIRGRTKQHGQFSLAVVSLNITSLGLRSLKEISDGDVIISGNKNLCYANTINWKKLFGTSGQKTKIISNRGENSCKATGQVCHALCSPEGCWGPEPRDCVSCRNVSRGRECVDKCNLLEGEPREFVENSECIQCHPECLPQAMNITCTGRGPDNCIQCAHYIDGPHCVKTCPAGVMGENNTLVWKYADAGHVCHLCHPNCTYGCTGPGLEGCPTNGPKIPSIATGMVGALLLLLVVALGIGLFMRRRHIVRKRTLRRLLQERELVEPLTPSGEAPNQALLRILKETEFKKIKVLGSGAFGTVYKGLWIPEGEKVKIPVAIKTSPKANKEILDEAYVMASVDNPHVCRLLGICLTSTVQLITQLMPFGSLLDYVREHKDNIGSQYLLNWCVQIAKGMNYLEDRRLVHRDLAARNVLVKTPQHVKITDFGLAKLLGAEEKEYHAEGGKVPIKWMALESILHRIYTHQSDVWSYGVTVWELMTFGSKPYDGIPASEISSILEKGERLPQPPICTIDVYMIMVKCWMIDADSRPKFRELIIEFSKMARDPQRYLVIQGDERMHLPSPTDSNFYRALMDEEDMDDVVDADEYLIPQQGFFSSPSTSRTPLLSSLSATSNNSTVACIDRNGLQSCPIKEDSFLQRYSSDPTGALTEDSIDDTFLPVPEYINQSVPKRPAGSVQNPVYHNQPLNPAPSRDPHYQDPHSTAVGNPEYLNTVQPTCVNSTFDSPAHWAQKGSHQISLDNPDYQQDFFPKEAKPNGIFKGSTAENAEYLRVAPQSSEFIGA
Outline: as §1

EGFR wildtype (WT) = EGFR wildtype (WT) (Homo sapiens, UniProt P00533); experiment: Biochemical EGFR kinase inhibition assay (Lance Ultra TR-FRET), wildtype
Chain of EGFR wildtype (WT) (P00533 25-1210): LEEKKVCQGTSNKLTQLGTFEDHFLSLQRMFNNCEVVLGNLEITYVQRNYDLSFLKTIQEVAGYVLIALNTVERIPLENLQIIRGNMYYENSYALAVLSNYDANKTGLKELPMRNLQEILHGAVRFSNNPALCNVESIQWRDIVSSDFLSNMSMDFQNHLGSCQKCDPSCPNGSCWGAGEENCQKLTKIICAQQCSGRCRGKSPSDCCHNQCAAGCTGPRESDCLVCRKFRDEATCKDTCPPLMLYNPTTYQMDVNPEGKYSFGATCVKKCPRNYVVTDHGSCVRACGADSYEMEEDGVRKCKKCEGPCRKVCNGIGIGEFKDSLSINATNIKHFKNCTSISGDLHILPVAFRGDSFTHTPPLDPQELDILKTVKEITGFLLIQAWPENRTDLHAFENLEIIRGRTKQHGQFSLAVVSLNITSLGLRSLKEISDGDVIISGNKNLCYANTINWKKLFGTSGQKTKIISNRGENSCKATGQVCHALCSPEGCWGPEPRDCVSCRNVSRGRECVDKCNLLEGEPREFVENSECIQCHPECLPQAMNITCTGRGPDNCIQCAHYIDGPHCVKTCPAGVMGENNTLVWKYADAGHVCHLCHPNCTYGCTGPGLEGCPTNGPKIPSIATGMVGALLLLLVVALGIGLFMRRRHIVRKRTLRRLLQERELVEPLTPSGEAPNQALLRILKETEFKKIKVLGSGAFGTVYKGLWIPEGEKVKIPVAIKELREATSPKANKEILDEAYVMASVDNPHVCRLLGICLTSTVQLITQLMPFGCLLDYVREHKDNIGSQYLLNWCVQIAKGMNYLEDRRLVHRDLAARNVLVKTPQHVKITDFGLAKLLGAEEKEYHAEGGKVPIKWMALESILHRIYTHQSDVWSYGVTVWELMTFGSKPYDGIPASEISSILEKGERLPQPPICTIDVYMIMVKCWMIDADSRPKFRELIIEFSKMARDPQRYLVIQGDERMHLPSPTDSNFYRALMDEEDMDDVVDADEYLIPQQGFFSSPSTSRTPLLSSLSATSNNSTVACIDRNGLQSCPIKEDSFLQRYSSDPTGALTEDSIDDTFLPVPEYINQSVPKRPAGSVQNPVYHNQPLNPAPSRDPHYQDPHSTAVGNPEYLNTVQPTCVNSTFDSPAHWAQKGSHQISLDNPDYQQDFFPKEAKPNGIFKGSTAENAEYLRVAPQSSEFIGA
Outline: as §1

EGFR L858R/T790M/C797S = EGFR L858R/T790M/C797S (Homo sapiens, UniProt P00533, C797S/L858R/T790M); experiment: Biochemical EGFR kinase inhibition assay (Lance Ultra TR-FRET), triple mutant L858R/T790M/C797S
Chain of EGFR L858R/T790M/C797S (P00533 25-1210 T790M/C797S/L858R): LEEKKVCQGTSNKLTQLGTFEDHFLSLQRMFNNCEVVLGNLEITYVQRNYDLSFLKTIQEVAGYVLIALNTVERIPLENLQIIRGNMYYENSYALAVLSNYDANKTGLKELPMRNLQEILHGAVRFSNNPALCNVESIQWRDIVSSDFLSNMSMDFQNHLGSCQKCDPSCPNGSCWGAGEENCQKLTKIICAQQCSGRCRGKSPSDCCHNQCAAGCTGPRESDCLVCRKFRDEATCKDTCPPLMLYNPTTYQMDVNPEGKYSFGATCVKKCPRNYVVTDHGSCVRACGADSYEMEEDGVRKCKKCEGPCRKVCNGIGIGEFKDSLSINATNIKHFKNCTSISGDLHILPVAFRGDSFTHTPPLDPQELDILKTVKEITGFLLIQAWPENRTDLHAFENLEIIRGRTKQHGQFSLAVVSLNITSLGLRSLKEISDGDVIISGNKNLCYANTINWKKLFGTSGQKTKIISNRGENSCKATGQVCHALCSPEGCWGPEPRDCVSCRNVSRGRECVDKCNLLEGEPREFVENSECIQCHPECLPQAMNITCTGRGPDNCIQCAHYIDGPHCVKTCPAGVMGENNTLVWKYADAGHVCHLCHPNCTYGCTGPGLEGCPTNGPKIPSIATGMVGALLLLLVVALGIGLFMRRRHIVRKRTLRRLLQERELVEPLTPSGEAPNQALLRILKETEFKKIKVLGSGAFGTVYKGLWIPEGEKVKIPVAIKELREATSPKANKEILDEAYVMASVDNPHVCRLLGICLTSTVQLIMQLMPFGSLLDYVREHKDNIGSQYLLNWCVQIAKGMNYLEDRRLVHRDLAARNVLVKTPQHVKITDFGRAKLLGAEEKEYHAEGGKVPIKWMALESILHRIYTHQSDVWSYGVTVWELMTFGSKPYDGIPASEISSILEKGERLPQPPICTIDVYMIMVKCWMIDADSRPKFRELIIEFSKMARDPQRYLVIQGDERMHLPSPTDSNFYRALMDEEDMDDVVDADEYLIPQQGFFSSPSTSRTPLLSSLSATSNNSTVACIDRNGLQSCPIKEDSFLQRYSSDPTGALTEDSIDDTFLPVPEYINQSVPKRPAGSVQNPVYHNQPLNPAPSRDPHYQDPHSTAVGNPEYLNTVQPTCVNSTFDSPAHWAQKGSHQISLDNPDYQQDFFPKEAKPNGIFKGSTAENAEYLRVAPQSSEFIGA
Outline: as §1

EGFR L858R/C797S = EGFR L858R/C797S (Homo sapiens, UniProt P00533, C797S/L858R); experiment: Biochemical EGFR kinase inhibition assay (Lance Ultra TR-FRET), double mutant L858R/C797S
Outline: as §1

[1] = IC50 Del19/T790M/C797S (nM), 100 μM ATP
[2] = Km ATP, read-out: IC50 Del19/T790M/C797S (nM) Km ATP
[3] = IC50 Del19/C797S (nM), 100 μM ATP
[4] = Km ATP, read-out: IC50 Del19/C797S (nM) Km ATP
[5] = Km ATP, read-out: IC50 WT (nM) Km ATP
[6] = IC50 L858R/T790M/C797S (nM), 100 μM ATP
[7] = Km ATP, read-out: IC50 L858R/T790M/C797S (nM) Km ATP
[8] = IC50 L858R/C797S (nM), 100 μM ATP
[9] = Km ATP, read-out: IC50 L858R/C797S (nM) Km ATP
[10] = ATP at Km, read-out: IC50 Del19/T790M/C797S (nM), Km ATP
[11] = ATP at Km, read-out: IC50 Del19/C797S (nM), Km ATP
[12] = ATP at Km, read-out: IC50 L858R/T790M/C797S (nM), Km ATP
[13] = ATP at Km, read-out: IC50 L858R/C797S (nM), Km ATP
[14] = Km ATP, read-out: IC50 Del19/T790M/C797S (nM), Km ATP
[15] = Km ATP, read-out: IC50 Del19/C797S (nM), Km ATP
[16] = Km ATP, read-out: IC50 WT (nM), Km ATP
[17] = Km ATP, read-out: IC50 L858R/T790M/C797S (nM), Km ATP
[18] = Km ATP, read-out: IC50 L858R/C797S (nM), Km ATP
[19] = ATP at Km, read-out: IC50 WT (nM), Km ATP

Chain of EGFR Del19/T790M/C797S (P00533 with tags, fused parts or gaps DEL746-750/T790M/C797S): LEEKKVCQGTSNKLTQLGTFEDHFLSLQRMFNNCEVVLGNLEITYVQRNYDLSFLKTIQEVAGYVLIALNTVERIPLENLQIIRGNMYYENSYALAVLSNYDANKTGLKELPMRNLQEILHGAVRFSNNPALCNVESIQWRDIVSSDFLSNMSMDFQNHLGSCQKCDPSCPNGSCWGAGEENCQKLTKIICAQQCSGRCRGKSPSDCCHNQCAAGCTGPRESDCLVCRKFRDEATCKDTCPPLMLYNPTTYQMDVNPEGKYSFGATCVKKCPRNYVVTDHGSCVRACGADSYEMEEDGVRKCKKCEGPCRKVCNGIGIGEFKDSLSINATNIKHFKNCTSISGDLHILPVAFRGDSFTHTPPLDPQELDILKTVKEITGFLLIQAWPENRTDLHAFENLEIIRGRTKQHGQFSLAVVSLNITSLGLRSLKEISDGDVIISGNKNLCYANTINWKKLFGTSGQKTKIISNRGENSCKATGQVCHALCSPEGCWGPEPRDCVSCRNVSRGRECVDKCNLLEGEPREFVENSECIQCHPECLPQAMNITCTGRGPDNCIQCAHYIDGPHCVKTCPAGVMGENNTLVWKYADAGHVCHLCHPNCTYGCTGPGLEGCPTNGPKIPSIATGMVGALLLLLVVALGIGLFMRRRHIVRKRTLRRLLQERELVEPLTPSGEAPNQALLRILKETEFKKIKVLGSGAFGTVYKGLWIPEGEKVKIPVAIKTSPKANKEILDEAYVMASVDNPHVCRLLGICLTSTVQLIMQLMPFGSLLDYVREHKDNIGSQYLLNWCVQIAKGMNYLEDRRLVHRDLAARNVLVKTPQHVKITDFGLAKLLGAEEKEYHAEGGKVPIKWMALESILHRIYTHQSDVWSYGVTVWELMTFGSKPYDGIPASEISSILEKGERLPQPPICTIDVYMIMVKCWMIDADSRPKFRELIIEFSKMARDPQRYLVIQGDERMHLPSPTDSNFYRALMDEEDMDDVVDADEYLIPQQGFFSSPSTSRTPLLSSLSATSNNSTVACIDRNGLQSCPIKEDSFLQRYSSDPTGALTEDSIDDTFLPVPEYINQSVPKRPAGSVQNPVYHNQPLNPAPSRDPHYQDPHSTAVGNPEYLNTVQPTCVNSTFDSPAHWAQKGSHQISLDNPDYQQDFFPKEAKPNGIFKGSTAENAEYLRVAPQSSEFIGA

| Structure (SMILES) | IC50 (EGFR Del19/T790M/C797S; [1]) [nM] | IC50 (EGFR Del19/T790M/C797S; [2]) [nM] | IC50 (EGFR Del19/C797S; [3]) [nM] | IC50 (EGFR Del19/C797S; [4]) [nM] | IC50 (EGFR wildtype (WT); IC50 WT (nM), 100 μM ATP) [nM] | IC50 (EGFR wildtype (WT); [5]) [nM] | IC50 (EGFR L858R/T790M/C797S; [6]) [nM] | IC50 (EGFR L858R/T790M/C797S; [7]) [nM] | IC50 (EGFR L858R/C797S; [8]) [nM] | IC50 (EGFR L858R/C797S; [9]) [nM] | IC50 (EGFR Del19/T790M/C797S; [10]) [nM] | IC50 (EGFR Del19/C797S; [11]) [nM] | IC50 (EGFR L858R/T790M/C797S; [12]) [nM] | IC50 (EGFR L858R/C797S; [13]) [nM] | IC50 (EGFR Del19/T790M/C797S; [14]) [nM] | IC50 (EGFR Del19/C797S; [15]) [nM] | IC50 (EGFR wildtype (WT); [16]) [nM] | IC50 (EGFR L858R/T790M/C797S; [17]) [nM] | IC50 (EGFR L858R/C797S; [18]) [nM] | IC50 (EGFR wildtype (WT); [19]) [nM] |
| --- | --- | --- | --- | --- | --- | --- | --- | --- | --- | --- | --- | --- | --- | --- | --- | --- | --- | --- | --- | --- |
| Cn1cc(C#Cc2cnc(Nc3ccnc(-c4cnn(S(=O)(=O)C5CC5)c4)n3)cc2N2CC(C(C)(C)O)C2)cn1 [Example 35, 2-(1-(2-((2-(1-(Cyclopropylsulfonyl)-1H-pyrazol-4-yl)pyrimidin-4-yl)amino)-5-((1-methyl-1H-pyrazol-4-yl)ethynyl)pyridin-4-yl)azetidin-3-yl)propan-2-ol] | 1.9 | 0.9 | 27.3 | 28 | > 10000 | 99.6 | 2.4 | 2.4 | 53 | 34.2 | – | – | – | – | – | – | – | – | – | – |
| CC1(CO)CCN(c2cc(Nc3ccnc(-c4cnn(S(=O)(=O)C5CC5)c4)n3)ncc2C#Cc2cnn(C(F)F)c2)CC1 [Example 305, (1-(2-((2-(1-(Cyclopropylsulfonyl)-1H-pyrazol-4-yl)pyrimidin-4-yl)amino)-5-((1-(difluoromethyl)-1H-pyrazol-4-yl)ethynyl)pyridin-4-yl)-4-methylpiperidin-4-yl)methanol] | 1 | – | 2.4 | – | 1520 | – | 0.9 | – | 5.4 | – | 1.3 | 0.6 | 0.5 | 0.8 | – | – | – | – | – | – |
| CC1(CO)CCN(c2cc(Nc3ccnc(-c4cnn(S(=O)(=O)C5CC5)c4)n3)ncc2C#Cc2cnn(C3CC3)c2)CC1 [Example 47, (1-(5-((1-Cyclopropyl-1H-pyrazol-4-yl)ethynyl)-2-((2-(1-(cyclopropylsulfonyl)-1H-pyrazol-4-yl)pyrimidin-4-yl)amino)pyridin-4-yl)-4-methylpiperidin-4-yl)methanol] | 2.8 | 2.1 | 1.6 | 2.6 | 1740 | 19.6 | 3.5 | 1.4 | 7.8 | 3.3 | – | – | – | – | – | – | – | – | – | – |
| O=S(=O)(C1CC1)n1cc(-c2nccc(Nc3cc(N[C@H]4CC[C@@H](O)CC4)c(C#CC4COC4)cn3)n2)cn1 [Example 353, (1s,4s)-4-((2-((2-(1-(Cyclopropylsulfonyl)-1H-pyrazol-4-yl)pyrimidin-4-yl)amino)-5-(oxetan-3-ylethynyl)pyridin-4-yl)amino)cyclohexan-1-ol] | 0.2 | – | 0.6 | – | > 10000 | – | 0.2 | – | 16.6 | – | – | – | – | – | 0.2 | 1 | 11.3 | 0.1 | 3.3 | – |
| O=S(=O)(C1CC1)n1cc(-c2nccc(Nc3cc(N4CCC(F)(CO)CC4)c(C#Cc4cnn(CC(F)(F)F)c4)cn3)n2)cn1 [Example 342, (1-(2-((2-(1-(Cyclopropylsulfonyl)-1H-pyrazol-4-yl)pyrimidin-4-yl)amino)-5-((1-(2,2,2-trifluoroethyl)-1H-pyrazol-4-yl)ethynyl)pyridin-4-yl)-4-fluoropiperidin-4-yl)methanol] | 0.9 | – | 3.6 | – | > 10000 | – | 0.8 | – | 11.8 | – | – | – | – | – | 0.8 | 2.3 | 11 | 0.2 | 4.5 | – |
| CC(O)C1CCN(c2cc(Nc3ccnc(-c4cnn(S(=O)(=O)C5CC5)c4)n3)ncc2C#Cc2cnn(C(F)(F)F)c2)CC1 (stereo not shown) [Example 328, 1-(1-(2-((2-(1-(Cyclopropylsulfonyl)-1H-pyrazol-4-yl)pyrimidin-4-yl)amino)-5-((1-(trifluoromethyl)-1H-pyrazol-4-yl)ethynyl)pyridin-4-yl)piperidin-4-yl)ethan-1-ol] | 3.1 | – | 648 | – | > 10000 | – | 22.7 | – | 47.4 | – | 5.3 | 36.6 | 1 | 25.8 | – | – | – | – | – | 162 |
| Cn1cc(C#Cc2cnc(Nc3ccnc(-c4cnn(S(=O)(=O)C5CC5)c4)n3)cc2N2CCC(NCCO)CC2)cn1 [Example 131, 2-((1-(2-((2-(1-(Cyclopropylsulfonyl)-1H-pyrazol-4-yl)pyrimidin-4-yl)amino)-5-((1-methyl-1H-pyrazol-4-yl)ethynyl)pyridin-4-yl)piperidin-4-yl)amino)ethan-1-ol] | 0.7 | – | 50.8 | – | > 10000 | – | 2.6 | – | 35.6 | – | – | – | – | – | – | – | – | – | – | – |
| O=S(=O)(C1CC1)n1cc(-c2nccc(Nc3cc(N4CCC(NCCF)CC4)c(C#Cc4cnn(C5CCOCC5)c4)cn3)n2)cn1 [Example 136, 2-(1-(Cyclopropylsulfonyl)-1H-pyrazol-4-yl)-N-(4-(4-((2-fluoroethyl)amino)piperidin-1-yl)-5-((1-(tetrahydro-2H-pyran-4-yl)-1H-pyrazol-4-yl)ethynyl)pyridin-2-yl)pyrimidin-4-amine] | 0.3 | 0.3 | 4.9 | 3.3 | > 10000 | 60.2 | 1.2 | 0.3 | 30.5 | 2.7 | – | – | – | – | – | – | – | – | – | – |
| Cn1cc(C#Cc2cnc(Nc3ccnc(-c4cnn(S(=O)(=O)C5CC5)c4)n3)cc2N2CCC(F)CC2)cn1 [Example 8, 2-(1-(Cyclopropylsulfonyl)-1H-pyrazol-4-yl)-N-(4-(4-fluoropiperidin-1-yl)-5-((1-methyl-1H-pyrazol-4-yl)ethynyl)pyridin-2-yl)pyrimidin-4-amine] | 3.1 | – | 9.5 | – | > 10000 | – | 2.2 | – | 33.2 | – | – | – | – | – | – | – | – | – | – | – |
| CC(C)Nc1cc(Nc2ccnc(-c3cnn(S(=O)(=O)C4CC4)c3)n2)ncc1C#CCCCCNC(=O)N1CCOCC1 [Example 209, N-(6-(6-((2-(1-(Cyclopropylsulfonyl)-1H-pyrazol-4-yl)pyrimidin-4-yl)amino)-4-(isopropylamino)pyridin-3-yl)hex-5-yn-1-yl)morpholine-4-carboxamide] | 2.6 | – | 120 | – | > 10000 | – | 4.4 | – | 112 | – | – | – | – | – | – | – | – | – | – | – |
| CC1(CO)CCN(c2cc(Nc3ccnc(-c4cnn(S(=O)(=O)C5CC5)c4)n3)ncc2C#Cc2cnn(C3CCOC3)c2)CC1 (stereo not shown) [Example 244, (1-(2-((2-(1-(Cyclopropylsulfonyl)-1H-pyrazol-4-yl)pyrimidin-4-yl)amino)-5-((1-(tetrahydrofuran-3-yl)-1H-pyrazol-4-yl)ethynyl)pyridin-4-yl)-4-methylpiperidin-4-yl)methanol] | 1.3 | – | 0.5 | – | 418 | – | 1.5 | – | 3.1 | – | 0.8 | 0.6 | 0.5 | 1 | – | – | – | – | – | 6 |
